# Reference: PubChem BioAssay (NCI)
#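 Exposure lasted 48 hours, with cells grown in 96-well plates and compounds tested at five concentrations. Abbreviation: GI50, concentration required for 50% inhibition of growth. TGI marks complete inhibition of growth.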
# Columns and labels:
# Test in all cases: NCI anticancer screen, dose series, 48 h
# A498 renal = tested on: A498 renal
# MALME-3M melanoma = tested on: MALME-3M melanoma
# K-562 leukemia = tested on: K-562 leukemia
# OVCAR-5 ovarian = tested on: OVCAR-5 ovarian
# MCF7 breast = tested on: MCF7 breast
# NCI-H460 lung = tested on: NCI-H460 lung
# A549 NSCLC = tested on: A549 NSCLC
# MDA-MB-435 = tested on: MDA-MB-435
# SK-MEL-5 melanoma = tested on: SK-MEL-5 melanoma
# KM12 colon = tested on: KM12 colon
# SF-268 CNS = tested on: SF-268 CNS
# DU-145 prostate = tested on: DU-145 prostate
# OVCAR-4 ovarian = tested on: OVCAR-4 ovarian
# 786-0 renal = tested on: 786-0 renal
# MDA-MB-231 breast = tested on: MDA-MB-231 breast
# SR leukemia = tested on: SR leukemia
# HT29 colon = tested on: HT29 colon
# CCRF-CEM leukemia = tested on: CCRF-CEM leukemia
# TK-10 renal = tested on: TK-10 renal
# HOP-62 NSCLC = tested on: HOP-62 NSCLC
# HS 578T breast = tested on: HS 578T breast
# IGROV1 ovarian = tested on: IGROV1 ovarian
# HCT-15 colon = tested on: HCT-15 colon
# UACC-257 melanoma = tested on: UACC-257 melanoma
# NCI-H23 lung = tested on: NCI-H23 lung
# EKVX NSCLC = tested on: EKVX NSCLC
# SK-MEL-2 melanoma = tested on: SK-MEL-2 melanoma
# SW-620 colon = tested on: SW-620 colon
# SK-MEL-28 melanoma = tested on: SK-MEL-28 melanoma
# HOP-92 NSCLC = tested on: HOP-92 NSCLC
# M14 melanoma = tested on: M14 melanoma
# LOX IMVI melanoma = tested on: LOX IMVI melanoma
# ACHN renal = tested on: ACHN renal
# SK-OV-3 ovarian = tested on: SK-OV-3 ovarian
# RXF 393 renal = tested on: RXF 393 renal
# RPMI-8226 leukemia = tested on: RPMI-8226 leukemia
# SNB-75 CNS = tested on: SNB-75 CNS
# SF-539 CNS = tested on: SF-539 CNS
# NCI-H522 lung = tested on: NCI-H522 lung
# COLO 205 colon = tested on: COLO 205 colon
# HCT-116 colon = tested on: HCT-116 colon
# NCI-H226 lung = tested on: NCI-H226 lung
# BT-549 breast = tested on: BT-549 breast
# OVCAR-3 ovarian = tested on: OVCAR-3 ovarian
# HL-60(TB) leukemia = tested on: HL-60(TB) leukemia
# T-47D breast = tested on: T-47D breast
# SF-295 CNS = tested on: SF-295 CNS
# UACC-62 melanoma = tested on: UACC-62 melanoma
# U251 CNS = tested on: U251 CNS
# SNB-19 CNS = tested on: SNB-19 CNS
# CAKI-1 renal = tested on: CAKI-1 renal
# NCI/ADR-RES ovarian = tested on: NCI/ADR-RES ovarian
# OVCAR-8 ovarian = tested on: OVCAR-8 ovarian
# UO-31 renal = tested on: UO-31 renal
# PC-3 prostate = tested on: PC-3 prostate
# SN12C renal = tested on: SN12C renal
# HCC-2998 colon = tested on: HCC-2998 colon
# MOLT-4 leukemia = tested on: MOLT-4 leukemia
smiles,measurement,setting,value
C=C(C)C(=O)O[C@H]1C[C@@]2(C)OC(=CC2=O)/C(C)=C\[C@H]2OC(=O)C(=C)[C@H]12,GI50,A498 renal,7.42 µM
same,TGI,A498 renal,16.5 µM
same,GI50,MALME-3M melanoma,666 nM
same,TGI,MALME-3M melanoma,1500 nM
same,GI50,K-562 leukemia,1150 nM
same,TGI,K-562 leukemia,> 33.2 µM
same,GI50,OVCAR-5 ovarian,1030 nM
same,TGI,OVCAR-5 ovarian,3.21 µM
same,GI50,MCF7 breast,1000 nM
same,TGI,MCF7 breast,5.33 µM
same,GI50,NCI-H460 lung,5.01 µM
same,TGI,NCI-H460 lung,> 33.2 µM
same,GI50,A549 NSCLC,8.47 µM
same,TGI,A549 NSCLC,> 33.2 µM
same,GI50,MDA-MB-435,717 nM
same,TGI,MDA-MB-435,1780 nM
same,GI50,SK-MEL-5 melanoma,3.67 µM
same,TGI,SK-MEL-5 melanoma,13.6 µM
same,GI50,KM12 colon,3.84 µM
same,TGI,KM12 colon,8.87 µM
same,GI50,SF-268 CNS,1990 nM
same,TGI,SF-268 CNS,> 16.7 µM
same,GI50,DU-145 prostate,968 nM
same,TGI,DU-145 prostate,4.18 µM
same,GI50,OVCAR-4 ovarian,1380 nM
same,TGI,OVCAR-4 ovarian,6.36 µM
same,GI50,786-0 renal,660 nM
same,TGI,786-0 renal,1500 nM
same,GI50,MDA-MB-231 breast,1180 nM
same,TGI,MDA-MB-231 breast,4.64 µM
same,GI50,SR leukemia,734 nM
same,TGI,SR leukemia,6.3 µM
same,GI50,HT29 colon,957 nM
same,TGI,HT29 colon,3.29 µM
same,GI50,CCRF-CEM leukemia,930 nM
same,TGI,CCRF-CEM leukemia,4.25 µM
same,GI50,TK-10 renal,859 nM
same,TGI,TK-10 renal,2060 nM
same,GI50,HOP-62 NSCLC,6.5 µM
same,TGI,HOP-62 NSCLC,24.6 µM
same,GI50,HS 578T breast,8.21 µM
same,TGI,HS 578T breast,> 33.2 µM
same,GI50,IGROV1 ovarian,1950 nM
same,TGI,IGROV1 ovarian,6.23 µM
same,GI50,HCT-15 colon,795 nM
same,TGI,HCT-15 colon,3.29 µM
same,GI50,UACC-257 melanoma,872 nM
same,TGI,UACC-257 melanoma,2280 nM
same,GI50,NCI-H23 lung,1540 nM
same,TGI,NCI-H23 lung,8.32 µM
same,GI50,EKVX NSCLC,1310 nM
same,TGI,EKVX NSCLC,12.2 µM
same,GI50,SK-MEL-2 melanoma,1400 nM
same,TGI,SK-MEL-2 melanoma,6.02 µM
same,GI50,SW-620 colon,705 nM
same,TGI,SW-620 colon,1720 nM
same,GI50,SK-MEL-28 melanoma,788 nM
same,TGI,SK-MEL-28 melanoma,1960 nM
same,GI50,HOP-92 NSCLC,1040 nM
same,TGI,HOP-92 NSCLC,2990 nM
same,GI50,M14 melanoma,790 nM
same,TGI,M14 melanoma,2370 nM
same,GI50,LOX IMVI melanoma,601 nM
same,TGI,LOX IMVI melanoma,1340 nM
same,GI50,ACHN renal,625 nM
same,TGI,ACHN renal,1600 nM
same,GI50,SK-OV-3 ovarian,10.7 µM
same,TGI,SK-OV-3 ovarian,> 33.2 µM
same,GI50,RXF 393 renal,601 nM
same,TGI,RXF 393 renal,1190 nM
same,GI50,RPMI-8226 leukemia,1060 nM
same,TGI,RPMI-8226 leukemia,3.4 µM
same,GI50,SNB-75 CNS,1150 nM
same,TGI,SNB-75 CNS,16.4 µM
same,GI50,SF-539 CNS,1070 nM
same,TGI,SF-539 CNS,4.78 µM
same,GI50,NCI-H522 lung,461 nM
same,TGI,NCI-H522 lung,1040 nM
same,GI50,COLO 205 colon,554 nM
same,TGI,COLO 205 colon,1260 nM
same,GI50,HCT-116 colon,530 nM
same,TGI,HCT-116 colon,1210 nM
same,GI50,NCI-H226 lung,762 nM
same,TGI,NCI-H226 lung,1990 nM
same,GI50,BT-549 breast,927 nM
same,TGI,BT-549 breast,3.03 µM
same,GI50,OVCAR-3 ovarian,863 nM
same,TGI,OVCAR-3 ovarian,2920 nM
same,GI50,HL-60(TB) leukemia,913 nM
same,TGI,HL-60(TB) leukemia,2450 nM
same,GI50,T-47D breast,661 nM
same,TGI,T-47D breast,3.8 µM
same,GI50,SF-295 CNS,5.82 µM
same,TGI,SF-295 CNS,18.5 µM
same,GI50,UACC-62 melanoma,675 nM
same,TGI,UACC-62 melanoma,1800 nM
same,GI50,U251 CNS,1750 nM
same,TGI,U251 CNS,7.16 µM
same,GI50,SNB-19 CNS,11.1 µM
same,TGI,SNB-19 CNS,> 33.2 µM
same,GI50,CAKI-1 renal,928 nM
same,TGI,CAKI-1 renal,3.12 µM
same,GI50,NCI/ADR-RES ovarian,1110 nM
same,TGI,NCI/ADR-RES ovarian,> 33.2 µM
same,GI50,OVCAR-8 ovarian,1230 nM
same,TGI,OVCAR-8 ovarian,> 33.2 µM
same,GI50,UO-31 renal,560 nM
same,TGI,UO-31 renal,1240 nM
same,GI50,PC-3 prostate,2010 nM
same,TGI,PC-3 prostate,7.63 µM
same,GI50,SN12C renal,1300 nM
same,TGI,SN12C renal,11 µM
same,GI50,HCC-2998 colon,3.3 µM
same,TGI,HCC-2998 colon,8.15 µM
same,GI50,MOLT-4 leukemia,1010 nM
same,TGI,MOLT-4 leukemia,3.52 µM
